Source: patent US20240124431A1, “2,3-DIHYDRO-4H-BENZO[B][1,4]OXAZIN-4-YL)(5-(PHENYL)-PYRIDIN-3-YL)METHANONE DERIVATIVES AND SIMILAR COMPOUNDS AS CYP11A1 INHIBITORS FOR THE TREATMENT OF PROSTATE CANCER” (ORION CORPORATION, priority 2020, published 2024)

Target: T1, CYP11A1 (Homo sapiens, UniProt P05108)
T1 construct: endogenous in cells; host or cells: NCI-H295R
T1 sequence (P05108 40-521): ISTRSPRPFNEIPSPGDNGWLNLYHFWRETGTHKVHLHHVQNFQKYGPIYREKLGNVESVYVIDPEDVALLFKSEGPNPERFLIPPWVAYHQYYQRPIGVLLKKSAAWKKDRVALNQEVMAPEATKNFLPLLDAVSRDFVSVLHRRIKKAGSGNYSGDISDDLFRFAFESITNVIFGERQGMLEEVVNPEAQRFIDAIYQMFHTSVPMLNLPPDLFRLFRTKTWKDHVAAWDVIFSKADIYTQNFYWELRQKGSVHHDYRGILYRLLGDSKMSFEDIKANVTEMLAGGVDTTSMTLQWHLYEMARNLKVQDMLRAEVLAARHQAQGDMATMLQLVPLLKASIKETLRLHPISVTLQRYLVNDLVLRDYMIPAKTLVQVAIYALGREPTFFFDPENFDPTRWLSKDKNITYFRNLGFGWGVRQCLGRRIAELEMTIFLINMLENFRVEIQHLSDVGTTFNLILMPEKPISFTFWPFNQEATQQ
Experiment: CYP11A1 inhibition: pregnenolone biosynthesis measured by ELISA in NCI-H295R cells
Assay type: cell-based
Details: NCI-H295R cells treated for 24 hours, 10 concentrations in duplicates, read-out: IC50 on CYP11A1 inhibition (Group)
Procedure: The ability of the test compounds to inhibit pregnenolone biosynthesis was measured by enzyme-linked immunosorbent assay (ELISA) detecting pregnenolone (Abnova Pregnenolone ELISA Kit, KA1912). […] To determine the half maximal inhibitory concentration (IC50) of the test compounds on CYP11A1 inhibition, the cells were treated for 24 hours with increasing concentrations of the test compound. The final DMSO concentration was 0.4%. Medium samples were diluted 1:6 and pregnenolone amounts determined with ELISA. Manufacturer's recommended protocols were used and pregnenolone (Sigma-Aldrich, P9129) standards were prepared in cell culture medium. Absorbance (A450) was measured with Envision plate reader (PerkinElmer). All the test compounds were studied at 10 concentrations in duplicates.

SMILES	IC50
O=C(c1cncc(-c2cccc(OC(F)(F)F)c2)c1)N1CCOc2ccccc21 [Compound 1, (2,3-Dihydro-4H-benzo[b][1,4]oxazin-4-yl)(5-(3-(trifluoromethoxy)phenyl)-pyridin-3-yl)methanone]	201 to 2500 nM
O=C(c1cncc(-c2ccc(F)cc2)c1)N1CCOc2cc(F)ccc21 [Compound 2, (7-Fluoro-2,3-dihydro-4H-benzo[b][1,4]oxazin-4-yl)(5-(4-fluorophenyl)pyridin-3-yl)methanone]	< 50 nM
Cc1c(C(=O)N2CCOc3ccccc32)cncc1-c1ccccc1 [Compound 3, (2,3-Dihydro-4H-benzo[b][1,4]oxazin-4-yl)(4-methyl-5-phenylpyridin-3-yl)-methanone]	51 to 200 nM
Cc1c(C(=O)N2CCCc3ccccc32)cncc1-c1ccccc1 [Compound 4, (3,4-Dihydroquinolin-1(2H)-yl)(4-methyl-5-phenylpyridin-3-yl)methanone]	51 to 200 nM
Cc1c(C(=O)N2CCOc3ccccc32)cncc1-c1ccc(F)cc1 [Compound 5, (2,3-Dihydro-4H-benzo[b][1,4]oxazin-4-yl)(5-(4-fluorophenyl)-4-methylpyridin-3-yl)methanone]	< 50 nM
O=C(c1cc(-c2ccc(F)cc2)cnn1)N1CCOc2ccccc21 [Compound 7, (2,3-Dihydro-4H-benzo[b][1,4]oxazin-4-yl)(5-(4-fluorophenyl)pyridazin-3-yl)-methanone]	201 to 2500 nM
O=C(c1cncc(-c2ccc3ncoc3c2)n1)N1CCOc2ccccc21 [Compound 8, (6-(Benzo[d]oxazol-6-yl)pyrazin-2-yl)(2,3-dihydro-4H-benzo[b][1,4]oxazin-4-yl)methanone]	< 50 nM
O=C(c1cncc(-c2cccc(OC(F)(F)F)c2)n1)N1CCOc2ccccc21 [Compound 9, (2,3-Dihydro-4H-benzo[b][1,4]oxazin-4-yl)(6-(3-(trifluoromethoxy)phenyl)-pyrazin-2-yl)methanone]	51 to 200 nM
O=C(c1cncc(-c2ccccc2)c1)N1CCOc2ccccc21 [Compound 10, (2,3-Dihydro-4H-benzo[b][1,4]oxazin-4-yl)(5-phenylpyridin-3-yl)methanone]	< 50 nM
O=C(c1cncc(-c2ccc3c(c2)OCC3)n1)N1CCCc2ccccc21 [Compound 12, (6-(2,3-Dihydrobenzofuran-6-yl)pyrazin-2-yl)(3,4-dihydroquinolin-1(2H)-yl)-methanone]	< 50 nM
O=C(c1cncc(-c2ccc3c(c2)OCC3)n1)N1CCOc2ccccc21 [Compound 13, (2,3-Dihydro-4H-benzo[b][1,4]oxazin-4-yl)(6-(2,3-dihydrobenzofuran-6-yl)pyrazin-2-yl)methanone]	< 50 nM
COc1ccc(-c2cncc(C(=O)N3CCCc4ccccc43)n2)cc1 [Compound 14, (3,4-Dihydroquinolin-1(2H)-yl)(6-(4-methoxyphenyl)pyrazin-2-yl)methanone]	< 50 nM
O=C(c1cncc(-c2ccccc2)n1)N1CCCc2ccccc21 [Compound 15, (3,4-Dihydroquinolin-1(2H)-yl)(6-phenylpyrazin-2-yl)methanone]	< 50 nM
O=C(c1cncc(-c2ccc(F)cc2)c1)N1CCCc2ccccc21 [Compound 16, (3,4-Dihydroquinolin-1(2H)-yl)(5-(4-fluorophenyl)pyridin-3-yl)methanone]	< 50 nM
COc1ccc(-c2cncc(C(=O)N3CCCc4ccccc43)c2)cc1 [Compound 18, (3,4-Dihydroquinolin-1(2H)-yl)(5-(4-methoxyphenyl)pyridin-3-yl)methanone]	< 50 nM
O=C(c1cncc(-c2ccc(F)c(F)c2)c1)N1CCOc2ccccc21 [Compound 19, (5-(3,4-Difluorophenyl)pyridin-3-yl)(2,3-dihydro-4H-benzo[b][1,4]oxazin-4-yl)-methanone]	< 50 nM
O=C(c1cncc(-c2ccc(F)cc2)n1)N1CCOc2ccccc21 [Compound 20, (2,3-Dihydro-4H-benzo[b][1,4]oxazin-4-yl)(6-(4-fluorophenyl)pyrazin-2-yl)-methanone]	< 50 nM
CN1CCN(C(=O)c2cncc(-c3ccc(F)cc3)n2)c2ccccc21 [Compound 21, (6-(4-Fluorophenyl)pyrazin-2-yl)(4-methyl-3,4-dihydroquinoxalin-1(2H)-yl)-methanone]	< 50 nM
CC1CCc2ccccc2N1C(=O)c1cncc(-c2ccc(F)cc2)n1 (centres unmarked) [Compound 22, (6-(4-Fluorophenyl)pyrazin-2-yl)(2-methyl-3,4-dihydroquinolin-1(2H)-yl)-methanone]	< 50 nM

SMILES	IC50
COc1ccc(-c2cncc(C(=O)N3CCOc4ccccc43)c2)cc1 [Compound 23, (2,3-Dihydro-4H-benzo[b][1,4]oxazin-4-yl)(5-(4-methoxyphenyl)pyridin-3-yl)-methanone]	< 50 nM
O=C(c1cncc(-c2ccc(F)cc2)c1)N1CCOc2ccccc21 [Compound 24, (2,3-Dihydro-4H-benzo[b][1,4]oxazin-4-yl)(5-(4-fluorophenyl)pyridin-3-yl)-methanone]	< 50 nM
COc1cccc(-c2cncc(C(=O)N3CCCc4ccccc43)n2)c1 [Compound 25, (3,4-Dihydroquinolin-1(2H)-yl)(6-(3-methoxyphenyl)pyrazin-2-yl)methanone]	< 50 nM
CC1COc2ccccc2N1C(=O)c1cncc(-c2ccc(F)cc2)n1 (centres unmarked) [Compound 26, (6-(4-Fluorophenyl)pyrazin-2-yl)(3-methyl-2,3-dihydro-4H-benzo[b][1,4]oxazin-4-yl)methanone]	< 50 nM
O=C(c1cncc(-c2ccc(F)c(O)c2)c1)N1CCOc2ccccc21 [Compound 27, (2,3-Dihydro-4H-benzo[b][1,4]oxazin-4-yl)(5-(4-fluoro-3-hydroxyphenyl)-pyridin-3-yl)methanone]	< 50 nM
O=C(c1cncc(-c2ccc(F)cc2F)c1)N1CCOc2ccccc21 [Compound 28, (5-(2,4-Difluorophenyl)pyridin-3-yl)(2,3-dihydro-4H-benzo[b][1,4]oxazin-4-yl)-methanone]	< 50 nM
O=C(c1cncc(-c2ccc3c(c2)OCC3)n1)N1CCOC2CCCCC21 (centres unmarked) [Compound 29, (6-(2,3-Dihydrobenzofuran-6-yl)pyrazin-2-yl)(octahydro-4H-benzo[b][1,4]-oxazin-4-yl)methanone]	< 50 nM
O=C(c1cnnc(-c2ccc(F)cc2)c1)N1CCCc2ccccc21 [Compound 30, (3,4-Dihydroquinolin-1(2H)-yl)(6-(4-fluorophenyl)pyridazin-4-yl)methanone]	< 50 nM
CN1CCN(C(=O)c2cncc(-c3ccc(F)cc3)c2)c2ccccc21 [Compound 31, (5-(4-Fluorophenyl)pyridin-3-yl)(4-methyl-3,4-dihydroquinoxalin-1(2H)-yl)-methanone]	< 50 nM
O=C(c1cncc(-c2ccc([N+](=O)[O-])cc2)c1)N1CCOc2ccccc21 [Compound 32, (2,3-Dihydro-4H-benzo[b][1,4]oxazin-4-yl)(5-(4-nitrophenyl)pyridin-3-yl)-methanone]	< 50 nM
O=C(c1cncc(C2=CCCCC2)c1)N1CCOc2ccccc21 [Compound 33, (5-(Cyclohex-1-en-1-yl)pyridin-3-yl)(2,3-dihydro-4H-benzo[b][1,4]oxazin-4-yl)methanone]	< 50 nM
COc1ccc(-c2cncc(C(=O)N3CCCc4ncccc43)c2)cc1 [Compound 34, (3,4-Dihydro-1,5-naphthyridin-1(2H)-yl)(5-(4-methoxyphenyl)pyridin-3-yl)-methanone]	< 50 nM
CCOC(=O)C1CN(C(=O)c2cncc(-c3ccc(F)cc3)n2)c2ccccc2O1 (centres unmarked) [Compound 35, Ethyl 4-(6-(4-fluorophenyl)pyrazine-2-carbonyl)-3,4-dihydro-2H-benzo[b][1,4]-oxazine-2-carboxylate]	< 50 nM
O=C1CCN(C(=O)c2cncc(-c3ccccc3)c2)c2ccccc21 [Compound 36, 1-(5-Phenylnicotinoyl)-2,3-dihydroquinolin-4(1H)-one]	< 50 nM
O=C(c1cncc(-c2ccccc2)n1)N1CCCc2ncccc21 [Compound 37, (3,4-Dihydro-1,5-naphthyridin-1(2H)-yl)(6-phenylpyrazin-2-yl)methanone]	< 50 nM
COc1cccc(-c2cncc(C(=O)N3CCCc4ccccc43)c2)c1 [Compound 38, (3,4-Dihydroquinolin-1(2H)-yl)(5-(3-methoxyphenyl)pyridin-3-yl)methanone]	< 50 nM
O=C(c1cncc(-n2cccc2)c1)N1CCCc2ccccc21 [Compound 39, (5-(1H-Pyrrol-1-yl)pyridin-3-yl)(3,4-dihydroquinolin-1(2H)-yl)methanone]	< 50 nM
O=C(c1cnnc(-c2ccc(F)cc2)c1)N1CCOc2ccccc21 [Compound 40, (2,3-Dihydro-4H-benzo[b][1,4]oxazin-4-yl)(6-(4-fluorophenyl)pyridazin-4-yl)-methanone]	< 50 nM
O=C(c1cncc(-c2ccccc2F)c1)N1CCOc2ccccc21 [Compound 41, (2,3-Dihydro-4H-benzo[b][1,4]oxazin-4-yl)(5-(2-fluorophenyl)pyridin-3-yl)-methanone]	< 50 nM
